Measurements as given in ChEMBL document CHEMBL3232946, “Development of 3,5-dinitrobenzoate-based 5-lipoxygenase inhibitors” (Bioorg Med Chem, 2014).

How the values were obtained:
[1] = molecular target: T1, Polyunsaturated fatty acid 5-lipoxygenase (Homo sapiens, UniProt P09917); assay: Inhibition of human 5-LOX using arachidonic acid as substrate preincubated for 10 mins followed by substrate addition by H2DCFDA staining-based fluorometric analysis
T1 sequence (P09917 whole entry): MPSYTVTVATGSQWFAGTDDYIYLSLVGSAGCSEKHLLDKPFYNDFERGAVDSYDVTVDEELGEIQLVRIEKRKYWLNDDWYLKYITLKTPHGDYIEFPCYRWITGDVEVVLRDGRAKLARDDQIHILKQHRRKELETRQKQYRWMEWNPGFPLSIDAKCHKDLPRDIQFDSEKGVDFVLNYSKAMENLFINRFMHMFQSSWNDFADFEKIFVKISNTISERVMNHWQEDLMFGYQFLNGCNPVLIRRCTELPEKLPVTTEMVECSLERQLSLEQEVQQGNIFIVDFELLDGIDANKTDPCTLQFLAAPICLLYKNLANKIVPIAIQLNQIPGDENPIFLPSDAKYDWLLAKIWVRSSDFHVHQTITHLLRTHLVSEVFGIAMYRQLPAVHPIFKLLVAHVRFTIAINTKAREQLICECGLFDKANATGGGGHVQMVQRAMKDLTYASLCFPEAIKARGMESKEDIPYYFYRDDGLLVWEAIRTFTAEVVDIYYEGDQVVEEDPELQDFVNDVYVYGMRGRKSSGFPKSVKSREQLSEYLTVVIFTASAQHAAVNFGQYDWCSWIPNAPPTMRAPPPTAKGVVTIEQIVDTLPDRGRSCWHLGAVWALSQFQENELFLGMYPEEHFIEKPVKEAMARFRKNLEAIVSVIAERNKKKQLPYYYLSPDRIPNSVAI

[2] = molecular target: T1, Polyunsaturated fatty acid 5-lipoxygenase; assay: Inhibition of 5-LOX in human whole blood assessed as inhibition of A23187-induced LTB4 production preincubated for 15 mins followed by A23187 induction measured after 30 mins by ELISA

Row | Compound | IC50 [1] [µM] | IC50 [2] [µM]
1 | O=C(Oc1ccccc1)c1cc([N+](=O)[O-])cc([N+](=O)[O-])c1 | 1.6 | 15.8
2 | CCCc1cccc(OC(=O)c2cc([N+](=O)[O-])cc([N+](=O)[O-])c2)c1 | 7.4 | 6.5
3 | O=C(Oc1ccc(-c2ccccc2)cc1)c1cc([N+](=O)[O-])cc([N+](=O)[O-])c1 | > 50 | > 50
4 | O=C(Nc1cccc2ccccc12)c1cc([N+](=O)[O-])cc([N+](=O)[O-])c1 | 0.004 | > 50
5 | O=C(Nc1ccccc1)c1cc([N+](=O)[O-])cc([N+](=O)[O-])c1 | 1.8 | 15.2
6 | Cc1cccc(NC(=O)c2cc([N+](=O)[O-])cc([N+](=O)[O-])c2)c1 | 0.01 | > 50
7 | O=C(Nc1cccc(Cl)c1)c1cc([N+](=O)[O-])cc([N+](=O)[O-])c1 | 0.033 | > 50
8 | COc1ccc(NC(=O)c2cc([N+](=O)[O-])cc([N+](=O)[O-])c2)cc1OC | 1.1 | > 50
9 | O=C(NCc1cccc(Br)c1)c1cc([N+](=O)[O-])cc([N+](=O)[O-])c1 | 83.6 | 14.4
10 | O=C(Nc1cccc(-c2ccccc2)c1)c1cc([N+](=O)[O-])cc([N+](=O)[O-])c1 | 0.03 | > 50
11 | O=C(O)c1cccc(C(=O)OCc2ccccc2)c1 | > 50 | > 50
12 | O=C(O)c1cccc(C(=O)Oc2cccc3ccccc23)c1 | > 50 | > 50

More lines, now with the values ahead:

Row | IC50 [1] [µM] | IC50 [2] [µM] | Compound
13 | 1 |  | O=C(Oc1cccc2ccccc12)c1cc([N+](=O)[O-])cc([N+](=O)[O-])c1
14 | 0.006 | 0.5 | Cc1cccc(OC(=O)c2cc([N+](=O)[O-])cc([N+](=O)[O-])c2)c1
15 | > 50 | > 50 | O=C(Oc1cccc(Cl)c1Cl)c1cc([N+](=O)[O-])cc([N+](=O)[O-])c1
16 | 8.7 | 38 | O=C(Oc1cccc(-c2ccccc2)c1)c1cc([N+](=O)[O-])cc([N+](=O)[O-])c1
17 | 7.1 | 24.6 | O=C(Oc1cccc2ccccc12)c1cccc([N+](=O)[O-])c1
18 | > 50 | > 50 | O=C(Nc1cccc(Br)c1)c1cc([N+](=O)[O-])cc([N+](=O)[O-])c1
19 | 0.034 | 2.7 | COc1ccc(NC(=O)c2cc([N+](=O)[O-])cc([N+](=O)[O-])c2)cc1
20 | > 50 | > 50 | O=C(O)c1cccc(C(=O)Nc2cccc3ccccc23)c1
21 | > 50 | > 50 | O=C(O)c1cccc(C(=O)Nc2ccccc2)c1
